Reference: PubChem BioAssay (NCI)
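Tested at 5 concentrations; 48 h exposure; 96-well plates; endpoints linearly interpolated, else capped at highest concentration. TGI denotes the concentration required for complete inhibition of growth.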

Key:
Test in all cases: inhibition of tumour cell growth, NCI panel, 48 h
[1] = system: A549 NSCLC
[2] = system: RXF-631 renal
[3] = system: UO-31 renal
[4] = system: XF 498 CNS
[5] = system: KM12 colon
[6] = system: SF-539 CNS
[7] = system: SK-MEL-2 melanoma
[8] = system: HCT-15 colon
[9] = system: HOP-92 NSCLC
[10] = system: NCI-H460 lung
[11] = system: IGROV1 ovarian
[12] = system: SNB-78 CNS
[13] = system: TK-10 renal
[14] = system: UACC-257 melanoma
[15] = system: SW-620 colon
[16] = system: HCT-116 colon
[17] = system: SF-268 CNS
[18] = system: HT29 colon
[19] = system: SNB-75 CNS
[20] = system: OVCAR-8 ovarian
[21] = system: M14 melanoma
[22] = system: HOP-62 NSCLC
[23] = system: SK-MEL-5 melanoma
[24] = system: DMS 273 small cell lung
[25] = system: RXF 393 renal
[26] = system: HCC-2998 colon
[27] = system: SF-295 CNS
[28] = system: SN12C renal
[29] = system: NCI-H522 lung
[30] = system: RPMI-8226 leukemia
[31] = system: MALME-3M melanoma
[32] = system: ACHN renal
[33] = system: SK-OV-3 ovarian
[34] = system: SNB-19 CNS
[35] = system: NCI-H226 lung
[36] = system: K-562 leukemia
[37] = system: OVCAR-5 ovarian
[38] = system: OVCAR-3 ovarian
[39] = system: MOLT-4 leukemia
[40] = system: SK-MEL-28 melanoma
[41] = system: DMS 114 small cell lung
[42] = system: NCI-H23 lung
[43] = system: HL-60(TB) leukemia
[44] = system: LXFL 529 NSCLC
[45] = system: M19-MEL melanoma
[46] = system: DLD-1 colon
[47] = system: LOX IMVI melanoma
[48] = system: EKVX NSCLC
[49] = system: SR leukemia
[50] = system: COLO 205 colon
[51] = system: CCRF-CEM leukemia
[52] = system: OVCAR-4 ovarian
[53] = system: KM20L2 colon
[54] = system: U251 CNS
[55] = system: 786-0 renal
[56] = system: UACC-62 melanoma
[57] = system: CAKI-1 renal
[58] = system: HOP-18 NSCLC
[59] = system: A498 renal

`NC1=C(NC(=O)Cc2ccc(F)cc2)C(=O)c2ccccc2C1=O` was tested, and the TGI [1] was > 100 µM, the TGI [2] was > 100 µM and the TGI [3] was > 100 µM. The TGI [4] was > 100 µM, the TGI [5] was > 100 µM and the TGI [6] was > 100 µM. The TGI [7] was > 100 µM, the TGI [8] was > 100 µM and the TGI [9] was 64.3 µM. The TGI [10] was > 100 µM, the TGI [11] was 59.4 µM and the TGI [12] was 65.1 µM. For the same compound, the TGI [13] was 59 µM, the TGI [14] was > 100 µM and the TGI [15] was > 100 µM. For the same compound, the TGI [16] was > 91.1 µM, the TGI [17] was > 100 µM and the TGI [18] was > 100 µM. For the same compound, the TGI [19] was 52.5 µM, the TGI [20] was 98.5 µM and the TGI [21] was > 100 µM. For the same compound, the TGI [22] was > 87.6 µM, the TGI [23] was > 100 µM and the TGI [24] was > 100 µM. The TGI [25] was 57 µM, the TGI [26] was > 100 µM and the TGI [27] was > 91.6 µM. The TGI [28] was > 100 µM, the TGI [29] was > 70.1 µM and the TGI [30] was > 100 µM. The TGI [31] was > 100 µM, the TGI [32] was > 100 µM and the TGI [33] was 56.1 µM. For the same compound, the TGI [34] was 59 µM, the TGI [35] was > 100 µM and the TGI [36] was > 100 µM. The TGI [37] was > 100 µM, the TGI [38] was > 100 µM and the TGI [39] was > 100 µM. The TGI [40] was > 100 µM, the TGI [41] was 27 µM and the TGI [42] was 27.9 µM. For the same compound, the TGI [43] was 98.6 µM, the TGI [44] was > 100 µM and the TGI [45] was 45.4 µM. For the same compound, the TGI [46] was > 71.4 µM, the TGI [47] was 31.4 µM and the TGI [48] was > 100 µM. The TGI [49] was > 100 µM, the TGI [50] was > 100 µM and the TGI [51] was > 100 µM. For the same compound, the TGI [52] was > 100 µM, the TGI [53] was > 100 µM and the TGI [54] was 46.8 µM. For the same compound, the TGI [55] was > 100 µM, the TGI [56] was > 100 µM and the TGI [57] was > 100 µM.
In the case of `CCN(CC)c1c(C(=O)/C=C/c2ccc(OC)cc2)c(-c2ccccc2)nn(C)c1=O`, the TGI [1] is reported as 81 µM, the TGI [2] is reported as > 100 µM and the TGI [3] is reported as > 100 µM. It also gave a TGI [5] of 37.1 µM, a TGI [6] of 45.9 µM and a TGI [7] of 38.7 µM. It also gave a TGI [9] of 43.4 µM, a TGI [10] of 35.4 µM and a TGI [11] of 68.8 µM. For the same compound, the TGI [12] was > 100 µM, the TGI [13] was 99.9 µM and the TGI [14] was 60.8 µM. For the same compound, the TGI [15] was 98.4 µM, the TGI [17] was 73.1 µM and the TGI [18] was 41.3 µM. The TGI [20] was > 100 µM, the TGI [58] was 51.7 µM and the TGI [22] was > 100 µM. For the same compound, the TGI [23] was 21.5 µM, the TGI [24] was 5.13 µM and the TGI [25] was 25 µM. For the same compound, the TGI [27] was 63.6 µM, the TGI [28] was 78.4 µM and the TGI [59] was 46.8 µM. For the same compound, the TGI [31] was 35.1 µM, the TGI [32] was > 100 µM and the TGI [33] was > 100 µM. For the same compound, the TGI [34] was 45.9 µM, the TGI [35] was 47.9 µM and the TGI [36] was 49.9 µM. It also gave a TGI [37] of 28 µM, a TGI [39] of 19.8 µM and a TGI [40] of 35.7 µM. For the same compound, the TGI [41] was 32.3 µM, the TGI [42] was 34.6 µM and the TGI [43] was 43.9 µM. The TGI [44] was > 100 µM, the TGI [45] was > 100 µM and the TGI [46] was 71.3 µM. The TGI [47] was 44.9 µM, the TGI [48] was 69.6 µM and the TGI [49] was 44.7 µM. It also gave a TGI [50] of 9.25 µM, a TGI [51] of 45.6 µM and a TGI [52] of 58 µM. For the same compound, the TGI [53] was 33.1 µM, the TGI [54] was 32.7 µM and the TGI [55] was 41.2 µM. For the same compound, the TGI [56] was 28.5 µM and the TGI [57] was > 100 µM.
